Values of other authors, collected in patent publication US20130316000A1, “COMPOSITIONS AND METHODS FOR TREATMENT OF IRRITABLE BOWEL SYNDROME WITH 5-AMINOSALICYLATE” (priority 2012, published 2013).

concentration detected in human breast milk: low concentrations
SMILES: Nc1ccc(O)c(C(=O)O)c1 [mesalamine, 5-aminosalicylic acid]
